Our source for the inhibition values is patent US20220289679A1, “HETEROCYCLIC COMPOUND” (Takeda Pharmaceutical Company Limited, priority 2019, published 2022).

Each structure is given as a SMILES string.

The target of the test is T1, human GCS (glucosylceramide synthase) (Homo sapiens, UniProt Q16739).
T1 construct: made in house; host or cells: Expi293F cells (transient expression; microsome fraction)
T1 sequence (Q16739 1-394): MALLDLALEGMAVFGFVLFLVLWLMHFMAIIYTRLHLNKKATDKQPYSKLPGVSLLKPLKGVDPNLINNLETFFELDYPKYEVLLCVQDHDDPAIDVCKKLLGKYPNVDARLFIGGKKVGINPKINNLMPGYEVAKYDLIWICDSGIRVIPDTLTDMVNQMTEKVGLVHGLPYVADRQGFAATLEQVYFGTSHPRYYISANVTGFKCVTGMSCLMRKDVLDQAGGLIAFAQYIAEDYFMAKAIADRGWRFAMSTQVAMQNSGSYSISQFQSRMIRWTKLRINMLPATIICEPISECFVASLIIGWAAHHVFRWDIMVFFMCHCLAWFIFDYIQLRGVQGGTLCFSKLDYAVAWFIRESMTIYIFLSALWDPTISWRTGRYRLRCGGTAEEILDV
Kind of test: Glucosylceramide Synthase (GCS) Assay. The class given is biochemical. To be noted: test compound 10 μM; microsome fraction of Expi293F cells expressing human GCS; 1.7 μM UDP-glucose, 3 μM C8 ceramide; room temperature 60 min; C8 glucosylceramide by Rapidfire MS/MS; read-out: GCS enzyme inhibitory rate at 10 μM (%). In a few lines:
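Enzyme source was a microsome fraction from Expi293F cells transiently expressing human GCS. Reaction ran 60 min at room temperature in 20 mM Tris pH 7.5 with 1.7 μM UDP-glucose (Km) and 3 μM liposomal C8 ceramide, compound at 10 μM final. C8 glucosylceramide quantified by RapidFire MS/MS; inhibition scaled between enzyme-free and DMSO controls.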
Take `COc1cc(F)ccc1-n1cccc(C(=O)Nc2ccc(C(F)(F)F)cc2)c1=O` [Example 11, 1-(4-fluoro-2-methoxyphenyl)-2-oxo-N-[4-(trifluoromethyl)phenyl]-1,2-dihydropyridine-3-carboxamide]: the inhibition at 10 µM amounted to 88%.

As for `N#CCc1ccc(NC(=O)c2cccn(-c3ccc(F)cc3OCC(F)(F)F)c2=O)cc1` [Example 57, N-[4-(cyanomethyl)phenyl]-1-[4-fluoro-2-(2,2,2-trifluoroethoxy)phenyl]-2-oxo-1,2-dihydropyridine-3-carboxamide], the inhibition at 10 µM is 95%.

Regarding `Cc1cc(C(=O)Nc2ccc(C(O)(C(F)F)C(F)F)nc2)c(=O)n(-c2ccccc2OCC(F)F)n1` [Example 109, 2-[2-(2,2-difluoroethoxy)phenyl]-6-methyl-3-oxo-N-[6-(1,1,3,3-tetrafluoro-2-hydroxypropan-2-yl)pyridin-3-yl]-2,3-dihydropyridazine-4-carboxamide], the inhibition at 10 µM stood at 100%.

For the molecule `CC(C)(O)c1ccc(NC(=O)c2cccn(-c3cc(F)ccc3OCC(F)(F)F)c2=O)cn1` [Example 125, 1-[5-fluoro-2-(2,2,2-trifluoroethoxy)phenyl]-N-[6-(2-hydroxypropan-2-yl)pyridin-3-yl]-2-oxo-1,2-dihydropyridine-3-carboxamide], the inhibition at 10 µM was determined as 82%.

Turning to `O=C(Nc1cnn(CC2CC2)c1)c1cccn(-c2ccc(F)cc2OCC(F)(F)F)c1=O` [Example 40, N-[1-(cyclopropylmethyl)-1H-pyrazol-4-yl]-1-[4-fluoro-2-(2,2,2-trifluoroethoxy)phenyl]-2-oxo-1,2-dihydropyridine-3-carboxamide], the inhibition at 10 µM is 69%.

On to `CC(C)(O)c1ccc(NC(=O)c2ccnn(-c3ccccc3OCC(F)F)c2=O)cc1` [Example 133, 2-[2-(2,2-difluoroethoxy)phenyl]-N-[4-(2-hydroxypropan-2-yl)phenyl]-3-oxo-2,3-dihydropyridazine-4-carboxamide], for which the inhibition at 10 µM was 100%.

Regarding `O=C(Nc1ccc(C(O)(C(F)F)C(F)F)nc1)c1ccnn(-c2ccc(F)cc2OCC(F)(F)F)c1=O` [Example 117, 2-[4-fluoro-2-(2,2,2-trifluoroethoxy)phenyl]-3-oxo-N-[6-(1,1,3,3-tetrafluoro-2-hydroxypropan-2-yl)pyridin-3-yl]-2,3-dihydropyridazine-4-carboxamide], the inhibition at 10 µM was determined as 100%.

For the molecule `N#Cc1cc(F)ccc1-n1cccc(C(=O)Nc2ccc(C(O)(C(F)(F)F)C(F)(F)F)cc2)c1=O` [Example 104, 1-(2-cyano-4-fluorophenyl)-N-[4-(1,1,1,3,3,3-hexafluoro-2-hydroxypropan-2-yl)phenyl]-2-oxo-1,2-dihydropyridine-3-carboxamide], the inhibition at 10 µM is 95%.

As for `O=C(Nc1cnn(CC(F)(F)F)c1)c1cccn(-c2ccc(F)cc2OCC(F)(F)F)c1=O` [Example 48, 1-[4-fluoro-2-(2,2,2-trifluoroethoxy)phenyl]-2-oxo-N-[1-(2,2,2-trifluoroethyl)-1H-pyrazol-4-yl]-1,2-dihydropyridine-3-carboxamide], the inhibition at 10 µM is 70%.

For the molecule `CC(O)c1cc(C(=O)Nc2ccc(OC(F)F)cc2)c(=O)n(-c2ccccc2OCC(F)(F)F)n1` (racemic) [Example 199, rac-N-[4-(difluoromethoxy)phenyl]-6-(1-hydroxyethyl)-3-oxo-2-[2-(2,2,2-trifluoroethoxy)phenyl]-2,3-dihydropyridazine-4-carboxamide], the inhibition at 10 µM was found to be 100%.

Consider `Cc1ccc(C(=O)Nc2ccc(C(C)(C)O)cc2)c(=O)n1-c1ccc(F)cc1OCC(F)(F)F` [Example 100, 1-[4-fluoro-2-(2,2,2-trifluoroethoxy)phenyl]-N-[4-(2-hydroxypropan-2-yl)phenyl]-6-methyl-2-oxo-1,2-dihydropyridine-3-carboxamide], for which the inhibition at 10 µM was found to be 70%.
